Reference: patent US12565505B2, “mTORC modulators and uses thereof” (Aeovian Pharmaceuticals, Inc., priority 2019, dated 2026)
Where two headings read alike, the source gives them in different places.

Key:
mTORC1 = biological target: T1, mTORC1 (Homo sapiens, UniProt P42345+P62942); assay: Inhibition assay for mTORC1: phosphorylation of pS6K at Thr389, AlphaLISA SureFire in PC3 cells; assay type: cell-based
T1 construct: endogenous in cells; host or cells: PC3 cells (human prostate adenocarcinoma)
In short: (§1)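 Human prostate adenocarcinoma PC3 cells treated with compounds for 24 h. AlphaLISA SureFire read-out of pS6K Thr389 for mTORC1 and pAkt Ser473 for mTORC2, from which IC50s were derived.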

mTORC2 = biological target: T2, mTORC2 (Homo sapiens, UniProt P42345+P62942); assay: Inhibition assay for mTORC2: phosphorylation of pAkt at Ser473, AlphaLISA SureFire in PC3 cells; assay type: cell-based; settings: 24 hours treatment, analogs substituted at C40 and C16 (C16 diastereomer mixtures not isolated)
T2 construct: endogenous in cells; host or cells: PC3 cells (human prostate adenocarcinoma)
In short: as §1

[1] = PC3 cells, 24 hours treatment, pS6K Thr389, analogs substituted at C40 and C16 (C16 diastereomer mixtures not isolated), read-out: pIC50 mTORC1 (converted)
[2] = PC3 cells, read-out: pIC50 mTORC2 (converted)

IC50 (mTORC1; [1]) [nM] | IC50 (mTORC2; [2]) [nM] | IC50 (mTORC1) [nM] | IC50 (mTORC2; pIC50 mTORC2, PC3 cells) [nM] | SMILES
< 0.316 | 1000 to 10000 | – | – | CO[C@@H]1C[C@H](C[C@@H](C)[C@@H]2CC(=O)[C@H](C)/C=C(\C)[C@@H](O)[C@@H](OC)C(=O)[C@H](C)C[C@H](C)/C=C/C=C/C=C(\C)C(OCCO)C[C@@H]3CC[C@@H](C)[C@@](O)(O3)C(=O)C(=O)N3CCCCC3C(=O)O2)CC[C@H]1OCCCCN1CCOCC1 (some centres unmarked) [Compound 50]
0.316 to 3.16 | 1000 to 10000 | – | – | CO[C@@H]1C[C@H](C[C@@H](C)[C@@H]2CC(=O)[C@H](C)/C=C(\C)[C@@H](O)[C@@H](OC)C(=O)[C@H](C)C[C@H](C)/C=C/C=C/C=C(\C)C(OCCO)C[C@@H]3CC[C@@H](C)[C@@](O)(O3)C(=O)C(=O)N3CCCCC3C(=O)O2)CC[C@H]1OC(=O)N(C)CCO (some centres unmarked) [Compound 83]
< 0.316 | < 1000 | – | – | CO[C@@H]1C[C@H](C[C@@H](C)[C@@H]2CC(=O)[C@H](C)/C=C(\C)[C@@H](O)[C@@H](OC)C(=O)[C@H](C)C[C@H](C)/C=C/C=C/C=C(\C)C(OCCc3ccccc3)C[C@@H]3CC[C@@H](C)[C@@](O)(O3)C(=O)C(=O)N3CCCCC3C(=O)O2)CC[C@H]1OC(=O)NCCc1c[nH]cn1 (some centres unmarked) [Compound 110]
< 0.316 | 1000 to 10000 | – | – | CO[C@@H]1C[C@H](C[C@@H](C)[C@@H]2CC(=O)[C@H](C)/C=C(\C)[C@@H](O)[C@@H](OC)C(=O)[C@H](C)C[C@H](C)/C=C/C=C/C=C(\C)C(OCCCCO)C[C@@H]3CC[C@@H](C)[C@@](O)(O3)C(=O)C(=O)N3CCCCC3C(=O)O2)CC[C@H]1OCCO (some centres unmarked) [Compound 63]
0.316 to 3.16 | 1000 to 10000 | – | – | CO[C@@H]1C[C@H](C[C@@H](C)[C@@H]2CC(=O)[C@H](C)/C=C(\C)[C@@H](O)[C@@H](OC)C(=O)[C@H](C)C[C@H](C)/C=C/C=C/C=C(\C)C(OCC3COC3)C[C@@H]3CC[C@@H](C)[C@@](O)(O3)C(=O)C(=O)N3CCCCC3C(=O)O2)CC[C@H]1OCCCO (some centres unmarked) [Compound 84]
< 0.316 | < 1000 | – | – | CO[C@@H]1C[C@H](C[C@@H](C)[C@@H]2CC(=O)[C@H](C)/C=C(\C)[C@@H](O)[C@@H](OC)C(=O)[C@H](C)C[C@H](C)/C=C/C=C/C=C(\C)C(OCCc3ccccc3)C[C@@H]3CC[C@@H](C)[C@@](O)(O3)C(=O)C(=O)N3CCCCC3C(=O)O2)CC[C@H]1OC(=O)N(C)CCCN(C)C (some centres unmarked) [Compound 95]
< 0.316 | > 10000 | – | – | COCCOC1C[C@@H]2CC[C@@H](C)[C@@](O)(O2)C(=O)C(=O)N2CCCCC2C(=O)O[C@H]([C@H](C)C[C@@H]2CC[C@@H](OC)[C@H](OC)C2)CC(=O)[C@H](C)/C=C(\C)[C@@H](O)[C@@H](OC)C(=O)[C@H](C)C[C@H](C)/C=C/C=C/C=C/1C (some centres unmarked) [Compound 11]
< 0.316 | > 10000 | – | – | CO[C@@H]1C[C@H](C[C@@H](C)[C@@H]2CC(=O)[C@H](C)/C=C(\C)[C@@H](O)[C@@H](OC)C(=O)[C@H](C)C[C@H](C)/C=C/C=C/C=C(\C)C(OCCO)C[C@@H]3CC[C@@H](C)[C@@](O)(O3)C(=O)C(=O)N3CCCCC3C(=O)O2)CC[C@H]1OCCCN1C[C@@H](C)O[C@@H](C)C1 (some centres unmarked) [Compound 18]
< 0.316 | 1000 to 10000 | – | – | CO[C@@H]1C[C@H](C[C@@H](C)[C@@H]2CC(=O)[C@H](C)/C=C(\C)[C@@H](O)[C@@H](OC)C(=O)[C@H](C)C[C@H](C)/C=C/C=C/C=C(\C)C(OCCc3ccccc3)C[C@@H]3CC[C@@H](C)[C@@](O)(O3)C(=O)C(=O)N3CCCCC3C(=O)O2)CC[C@H]1OCCO (some centres unmarked) [Compound 99]
0.316 to 3.16 | > 10000 | – | – | CO[C@@H]1C[C@H](C[C@@H](C)[C@@H]2CC(=O)[C@H](C)/C=C(\C)[C@@H](O)[C@@H](OC)C(=O)[C@H](C)C[C@H](C)/C=C/C=C/C=C(\C)C(OCCO)C[C@@H]3CC[C@@H](C)[C@@](O)(O3)C(=O)C(=O)N3CCCCC3C(=O)O2)CC[C@H]1OC(=O)N(C)CCCN(C)C (some centres unmarked) [Compound 77]
0.316 to 3.16 | > 10000 | – | – | CO[C@@H]1C[C@H](C[C@@H](C)[C@@H]2CC(=O)[C@H](C)/C=C(\C)[C@@H](O)[C@@H](OC)C(=O)[C@H](C)C[C@H](C)/C=C/C=C/C=C(\C)C(OCCO)C[C@@H]3CC[C@@H](C)[C@@](O)(O3)C(=O)C(=O)N3CCCCC3C(=O)O2)CC[C@H]1OC(=O)NCCN1CCN(C)CC1 (some centres unmarked) [Compound 76]
< 0.316 | < 1000 | – | – | CO[C@@H]1C[C@H](C[C@@H](C)[C@@H]2CC(=O)[C@H](C)/C=C(\C)[C@@H](O)[C@@H](OC)C(=O)[C@H](C)C[C@H](C)/C=C/C=C/C=C(\C)C(OCCc3ccccc3)C[C@@H]3CC[C@@H](C)[C@@](O)(O3)C(=O)C(=O)N3CCCCC3C(=O)O2)CC[C@H]1OC(=O)NCCO (stereo partly drawn) [Compound 111, [(1R,2R,4S)-4-[(2R)-2-[(1R,9S,12S,15R,16E,18R,19R,21R,23S,24E,26E,28E,32S,35R)-1,18-dihydroxy-19-methoxy-15,17,21,23,29,35-hexamethyl-2,3,10,14,20-pentaoxo-30-(2-phenylethoxy)-11,36-dioxa-4-azatricyclo[30.3.1.0^4,9]hexatriaconta-16,24,26,28-tetraen-12-yl]propyl]-2-methoxy-cyclohexyl] N-(2-hydroxyethyl)carbamate]
– | – | < 0.316 | > 10000 | COCCOCCOC1C[C@@H]2CC[C@@H](C)[C@@](O)(O2)C(=O)C(=O)N2CCCC[C@H]2C(=O)O[C@H]([C@H](C)C[C@@H]2CC[C@@H](OCCCO)[C@H](OC)C2)CC(=O)[C@H](C)/C=C(\C)[C@@H](O)[C@@H](OC)C(=O)[C@H](C)C[C@H](C)/C=C/C=C/C=C/1C (mixture of isomers) [Compound 17]
< 0.316 | < 1000 | – | – | CO[C@@H]1C[C@H](C[C@@H](C)[C@@H]2CC(=O)[C@H](C)/C=C(\C)[C@@H](O)[C@@H](OC)C(=O)[C@H](C)C[C@H](C)/C=C/C=C/C=C(\C)C(OCCc3ccccc3)C[C@@H]3CC[C@@H](C)[C@@](O)(O3)C(=O)C(=O)N3CCCCC3C(=O)O2)CC[C@H]1OCCCN1CCOCC1 (some centres unmarked) [Compound 108]
0.316 to 3.16 | < 1000 | – | – | CO[C@@H]1C[C@H](C[C@@H](C)[C@@H]2CC(=O)[C@H](C)/C=C(\C)[C@@H](O)[C@@H](OC)C(=O)[C@H](C)C[C@H](C)/C=C/C=C/C=C(\C)C(OCc3ccccc3)C[C@@H]3CC[C@@H](C)[C@@](O)(O3)C(=O)C(=O)N3CCCCC3C(=O)O2)CC[C@H]1OCCCc1ccccc1 (some centres unmarked) [Compound 116]
< 0.316 | 1000 to 10000 | – | – | CO[C@@H]1C[C@H](C[C@@H](C)[C@@H]2CC(=O)[C@H](C)/C=C(\C)[C@@H](O)[C@@H](OC)C(=O)[C@H](C)C[C@H](C)/C=C/C=C/C=C(\C)C(OCCO)C[C@@H]3CC[C@@H](C)[C@@](O)(O3)C(=O)C(=O)N3CCCCC3C(=O)O2)CC[C@H]1OC(=O)N(C)CCN1CCOCC1 (stereo partly drawn) [Compound 41, [(1R,2R,4S)-4-[(2R)-2-[(1R,9S,12S,15R,16E,18R,19R,21R,23S,24E,26E,28E,32S,35R)-1,18-dihydroxy-30-(2-hydroxyethoxy)-19-methoxy-15,17,21,23,29,35-hexamethyl-2,3,10,14,20-pentaoxo-11,36-dioxa-4-azatricyclo[30.3.1.0^4,9]hexatriaconta-16,24,26,28-tetraen-12-yl]propyl]-2-methoxy-cyclohexyl] N-methyl-N-(2-morpholinoethyl)carbamate]
< 0.316 | 1000 to 10000 | – | – | CO[C@@H]1C[C@H](C[C@@H](C)[C@@H]2CC(=O)[C@H](C)/C=C(\C)[C@@H](O)[C@@H](OC)C(=O)[C@H](C)C[C@H](C)/C=C/C=C/C=C(\C)C(OC[C@@H](O)c3ccccc3)C[C@@H]3CC[C@@H](C)[C@@](O)(O3)C(=O)C(=O)N3CCCCC3C(=O)O2)CC[C@H]1OCCCO (some centres unmarked) [Compound 90]
< 0.316 | 1000 to 10000 | – | – | COCCCCOC1C[C@@H]2CC[C@@H](C)[C@@](O)(O2)C(=O)C(=O)N2CCCCC2C(=O)O[C@H]([C@H](C)C[C@@H]2CC[C@@H](OCCCN3CCOCC3)[C@H](OC)C2)CC(=O)[C@H](C)/C=C(\C)[C@@H](O)[C@@H](OC)C(=O)[C@H](C)C[C@H](C)/C=C/C=C/C=C/1C (some centres unmarked) [Compound 65]
0.316 to 3.16 | > 10000 | – | – | CO[C@@H]1C[C@H](C[C@@H](C)[C@@H]2CC(=O)[C@H](C)/C=C(\C)[C@@H](O)[C@@H](OC)C(=O)[C@H](C)C[C@H](C)/C=C/C=C/C=C(\C)C(OCCO)C[C@@H]3CC[C@@H](C)[C@@](O)(O3)C(=O)C(=O)N3CCCCC3C(=O)O2)CC[C@H]1OCCCc1ccccc1 (some centres unmarked) [Compound 38]
< 0.316 | 1000 to 10000 | – | – | CO[C@@H]1C[C@H](C[C@@H](C)[C@@H]2CC(=O)[C@H](C)/C=C(\C)[C@@H](O)[C@@H](OC)C(=O)[C@H](C)C[C@H](C)/C=C/C=C/C=C(\C)C(OCCO)C[C@@H]3CC[C@@H](C)[C@@](O)(O3)C(=O)C(=O)N3CCCCC3C(=O)O2)CC[C@H]1OCCCN1CCOCC1 (stereo partly drawn) [Compound 55, (1R,9S,12SR,15R,16E,18R,19R,21R,23S,24E,26E,28E,32S,35R)-1,18-dihydroxy-30-(2-hydroxyethoxy)-19-methoxy-12-[(1R)-2-[(1S,3R,4R)-3-methoxy-4-(3-morpholinopropoxy)cyclohexyl]-1-methyl-ethyl]-15,17,21,23,29,35-hexamethyl-11,36-dioxa-4-azatricyclo[30.3.1.0^4,9]hexatriaconta-16,24,26,28-tetraene-2,3,10,14,20-pentone]
< 0.316 | > 10000 | – | – | CO[C@@H]1CC[C@@H](C[C@@H](C)[C@@H]2CC(=O)[C@H](C)/C=C(\C)[C@@H](O)[C@@H](OC)C(=O)[C@H](C)C[C@H](C)/C=C/C=C/C=C(\C)C(OCCCCO)C[C@@H]3CC[C@@H](C)[C@@](O)(O3)C(=O)C(=O)N3CCCCC3C(=O)O2)C[C@H]1OC (some centres unmarked) [Compound 24]
0.316 to 3.16 | 1000 to 10000 | – | – | CO[C@@H]1C[C@H](C[C@@H](C)[C@@H]2CC(=O)[C@H](C)/C=C(\C)[C@@H](O)[C@@H](OC)C(=O)[C@H](C)C[C@H](C)/C=C/C=C/C=C(\C)C(OCC3COC3)C[C@@H]3CC[C@@H](C)[C@@](O)(O3)C(=O)C(=O)N3CCCCC3C(=O)O2)CC[C@H]1OCCO (some centres unmarked) [Compound 75]
